# US10774046B2, “Inhibitors for the treatment of cancer and related methods” (UNIVERSITY OF LOUISVILLE RESEARCH FOUNDATION, INC., priority 2017, dated 2020)
# System: panel of 97 protein kinases
# Assay: KINOMEscan active-site dependent competition binding assay
# Conditions: 10 μM; data not shown
# Method: The fructose-6-phosphate kinase activity of human recombinant PFKFB4 in the presence of DMSO±indicated 5MPN concentrations was assayed as previously described. The activity of 5MPN against 97 kinases was examined using a commercially available active-site dependent competition binding assay core service (KINOMEscanEDGE) that quantifies the capacity of test agents to compete with an immobilized, active-site directed ligand using a DNA-tagged kinase and immobilized ligand and compound. For example, enzyme inhibition was studied using an ADP-Glo assay. The effect of MPN-2 on the activity of recombinant human PFKFB4 enzyme was examined in an ADP-Glo assay (Promega), which measures ADP formed from a kinase reaction. ADP is converted into ATP, which is converted into light by a luciferase. PFKFB4 protein was exposed to MPN-2 at indicated concentrations in the presence of ATP and fructose-6-phosphate and following manufacturer's instructions, ADP-Glo and kinase detections reagents were added. The data are shown as the decrease in luminescence caused by MPN-2 relative to DMSO.
smiles,measurement,value
"COc1cccc2c(NCCCCCO[N+](=O)[O-])ccnc12 [5MPN, 5-[(8-methoxyquinolin-4-yl)amino]pentyl nitrate]",inhibition of a panel of 97 protein kinases,not inhibited
